Measurements reported in patent publication US20250109165A1, “CYCLOPHILIN INHIBITORS AND USES THEREOF” (The Broad Institute, Inc., priority 2022, published 2025).
Entries after “also recorded” stand apart in the source; their conditions may differ.

Assays:
[1] = test system: cyclophilins; assay: Prolyl-isomerase inhibition screen on cyclophilins and cyclophilin mutants; format: biochemical, human
Method: (§1) IC50 values were calculated to be the value at which 50% inhibition was achieved on each compound's non-linear regression fitted curve.

[2] = molecular target: T1, CypE (Homo sapiens, UniProt Q9UNP9); assay: Competition anisotropy (fluorescence polarization) binding assay with A26-Fl; details: for CypE binding in FP competition (in words): compared to C3A
T1 construct: PPIE (UniProtKB Entry Q9UNP9: res 131-301); host or cells: E. coli BL21(DE3)
Method: Competition anisotropy binding assay with A26-Fl: Adapted from previous work^54, into a flat-bottom black untreated 96 well plate (Corning), cyclophilin in assay buffer (25 mM HEPES pH 8.0, 100 mM NaCl, 0.01% Triton X-100) at a predetermined concentration from FIG. 27 was incubated with 0.5 nM A26-Fl for 10 minutes at room temperature. Competitor macrocycle was then added to each well and incubated for 24 hours. Final assay volume was 100 μL with 0.25% DMSO. Fluorescence anisotropy was then measured using a Tecan Spark® plate reader using 492 nm/523 nm excitation/emission settings. Raw fluorescence polarization data was normalized to protein+fluorescent probe and buffer+fluorescent probe and Ki values were calculated using one site-competitive binding equation with Prism 9, importing Kd values from A26-Fl (FIGS. 12A-12C).

[3] = molecular target: T1, CypE; assay: Chymotrypsin coupled prolyl-isomerase assay; format: biochemical; details: for IC50: wild-type CypE, read-out: IC50^CypE
Method: as §1

[4] = molecular target: T2, CypD (Homo sapiens, UniProt P30405); assay: Chymotrypsin coupled prolyl-isomerase assay; format: biochemical
T2 construct: PPIF (UniProtKB Entry P30405: res 45-207); made in house; host or cells: E. coli BL21(DE3)
Method: as §1

[5] = test system: HeLa cells; assay: Fluorescence microscopy on HeLa cells; format: cell-based, human; details: Cy5 labeled compound 6 μM
Method: Fluorescence microscopy on Hela cells. Into 96 well black, clear bottom TC treated plates, cells were seeded in Dulbecco's Modified Eagle Medium (DMEM) supplemented with 10% fetal bovine serum 24 hours prior at a density where wells were ˜80% confluent at time of experiment. Media was removed and cells were then stained with 50 μL of mixture containing Cy5 labeled compound (6 μM) in Kreb's ringer solution HEPES buffered pH 7.2 (KRB), for 1 hour at 37° C. Then, 50 μL Hoechst 33342 (8 μM) and Mitotracker Green FM (0.1 μM) in KRB was added directly to wells containing cells and incubated for 15 minutes at 37° C. Media was removed and cells were washed two times with 100 μL KRB. Cells were then kept adherent to the wells in 100 μL KRB for imaging. Fluorescence microscopy was conducted on an Opera Phenix Plus High-Content Screening System, using Alexa 488, Alexa 647, and Hoescht 33342 channels. Images were analyzed using Harmony 4.9.

T1 sequence (Q9UNP9 131-301): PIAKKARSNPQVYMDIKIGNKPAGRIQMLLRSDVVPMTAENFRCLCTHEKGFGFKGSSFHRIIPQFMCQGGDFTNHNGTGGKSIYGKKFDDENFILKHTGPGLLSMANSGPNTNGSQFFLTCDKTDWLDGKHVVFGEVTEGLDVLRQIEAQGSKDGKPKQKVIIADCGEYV
T2 sequence (P30405 45-207): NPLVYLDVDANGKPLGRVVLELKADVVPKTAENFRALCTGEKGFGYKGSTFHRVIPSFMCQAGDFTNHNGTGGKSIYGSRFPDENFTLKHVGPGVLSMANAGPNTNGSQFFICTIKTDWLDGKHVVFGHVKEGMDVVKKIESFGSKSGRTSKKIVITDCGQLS

`N#CCc1ccc(-c2ccc(C[C@@H]3NC(=O)[C@]4(Cc5ccccc5)CCCN(C4)C(=O)/C=C/C(=O)NCC[C@@H](C(=O)NCCOCCN)NC(=O)Cc4ccccc4CNC3=O)cc2)cc1C(=O)O` [Compound B51] was tested, and the “cyclophilin selectivity profile (in words)” value [1] was “hampers the selectivity” and the “inhibition of cyclophilins tested (in words)” value [1] was “loss of potency”.

In the case of `NC(=O)[C@@H]1CCNC(=O)/C=C/C(=O)N2CCC[C@](Cc3ccccc3)(C2)C(=O)N[C@@H](Cc2ccc(-c3ccc(CC(C(=O)O)C(=O)O)cc3)cc2)C(=O)NCc2ccccc2CC(=O)N1` [Compound B52-A], the “cyclophilin selectivity profile (in words)” value [1] is reported as “retain the same selectivity profile”.

In the case of `NC(=O)[C@H]1CCNC(=O)/C=C/C(=O)N2CCC[C@](Cc3ccccc3)(C2)C(=O)N[C@H](Cc2ccc(-c3ccc(CC(C(=O)O)C(=O)O)cc3)cc2)C(=O)NCc2ccccc2CC(=O)N1` [*B52-A], the “inhibition of cyclophilins tested (in words)” value [1] is reported as “no substantial inhibition activity; also recorded: did not inhibit any cyclophilin”.

With `CC(=O)c1cc(-c2ccc(C[C@@H]3NC(=O)[C@]4(Cc5ccccc5)CCCN(C4)C(=O)/C=C/C(=O)NCC[C@@H](C(N)=O)NC(=O)Cc4ccccc4CNC3=O)cc2)ccc1B(O)O` [Compound C2A] the “CypE binding in FP competition (in words)” value (from here on “CypE binding”) [2] was “attenuated binding to CypE; also recorded: decreased potency for CypE”.

In the case of `NC(=O)[C@@H]1CCNC(=O)/C=C/C(=O)N2CCC[C@](Cc3ccccc3)(C2)C(=O)N[C@@H](Cc2ccc(-c3cccc(B(O)O)c3)cc2)C(=O)NCc2ccccc2CC(=O)N1` [Compound C6A], the “decrease in potency relative to C3A” value ([2]; FP competition with A26-Fl against CypE) is reported as 100 fold, the “CypE binding” value [2] is reported as “attenuated inhibition of CypE” and the IC50 [3] is reported as 4000 nM.

For `CC(=O)NCCNC(=O)CCCCCN1\C(=C/C=C/C=C/C2=[N+](C)c3ccccc3C2(C)C)C(C)(C)c2ccccc21` [Cy5-enAc, reference compound], the “CypD prolyl-isomerase inhibition (in words)” value [4] was “does not inhibit CypD” and the “mitochondrial localization (overlap with Mitotracker Green)” value [5] was “good mitochondrial localization”.

With `CC(=O)c1ccc(-c2ccc(C[C@@H]3NC(=O)[C@]4(Cc5ccccc5)CCCN(C4)C(=O)/C=C/C(=O)NCC[C@@H](C(N)=O)NC(=O)Cc4ccccc4CNC3=O)cc2)cc1B(O)O` [Compound C1A] the “CypE binding” value [2] was “attenuated binding to CypE; also recorded: decreased potency for CypE”, the “CypE potency and selectivity in prolyl isomerase assay (in words)” value [3] was “loss of potency and selectivity for CypE” and the IC50 [3] was 900 nM.

For `NC(=O)[C@@H]1CCNC(=O)/C=C/C(=O)N2CCC[C@](Cc3ccccc3)(C2)C(=O)N[C@@H](Cc2ccc(-c3ccc(C(CC(=O)O)CC(=O)O)cc3)cc2)C(=O)NCc2ccccc2CC(=O)N1` [Compound B53-A], the “cyclophilin selectivity profile (in words)” value [1] was “retain the same selectivity profile”.

In the case of `NCCOCCNC(=O)[C@@H]1CCNC(=O)/C=C/C(=O)N2CCC[C@](Cc3ccccc3)(C2)C(=O)N[C@@H](Cc2ccc(-c3ccc(C#CC(=O)O)cc3)cc2)C(=O)NCc2ccccc2CC(=O)N1` [Compound B25], the “cyclophilin selectivity profile (in words)” value [1] is reported as “selectivity over non-lysine-containing PPIL1, Cyp40, CypC, and PPWD1”.

With `NCCOCCNC(=O)[C@@H]1CCNC(=O)/C=C/C(=O)N2CCC[C@](Cc3ccccc3)(C2)C(=O)N[C@@H](Cc2ccc(-c3ccccc3)cc2)C(=O)NCc2ccccc2CC(=O)N1` [Compound B2] the “cyclophilin selectivity profile (in words)” value [1] was “selectivity over cyclophilins with sterically occluded S2 pockets”.

For `NC(=O)[C@H]1CCNC(=O)/C=C/C(=O)N2CCC[C@](Cc3ccccc3)(C2)C(=O)N[C@H](Cc2ccc(-c3ccc(C(CC(=O)O)CC(=O)O)cc3)cc2)C(=O)NCc2ccccc2CC(=O)N1` [*B53-A], the “inhibition of cyclophilins tested (in words)” value [1] was “no substantial inhibition activity; also recorded: did not inhibit any cyclophilin”.

For `NCCOCCNC(=O)[C@@H]1CCNC(=O)/C=C/C(=O)N2CCC[C@](Cc3ccccc3)(C2)C(=O)N[C@@H](Cc2ccc(-c3ccc(CCC(=O)O)cc3)cc2)C(=O)NCc2ccccc2CC(=O)N1` [Compound B23], the “cyclophilin selectivity profile (in words)” value [1] was “selectivity over non-lysine-containing PPIL1, Cyp40, CypC, and PPWD1”.
